Experimental data as given in patent US11884708B2, “Stapled peptide inhibitors of nemo as potential anti-inflammatory and anti-cancer drugs” (INSTITUT PASTEUR, priority 2015, dated 2024).
Each block holds one compound with its values, some of them ahead of it. Where a SMILES comes first, the peptide text is derived from it. Bridges are numbered along the chain shown (N, C = ends). [ ]: non-standard residue; d: D form. The star is where a group is joined. BODIPYFLEthylmaleimide = Cc1cc(C)n2c1C=C1C=CC(CCC(=O)NCCN3C(=O)CC(*)C3=O)=[N+]1[B-]2(F)F; R8 = C=CCCCCCC[C@@](C)(N)C(=O)O; S5 = C=CCCC[C@](C)(N)C(=O)O

Key:
CC2-LZ domain of NEMO = CC2-LZ domain of NEMO (Mus musculus, UniProt O88522); test: Fluorescence anisotropy/polarization binding assay; conditions: for Binding affinity (FP) at 10 μM: fixed peptide concentration 10 μM
Sequence of CC2-LZ domain of NEMO (O88522 242-343 limits assumed): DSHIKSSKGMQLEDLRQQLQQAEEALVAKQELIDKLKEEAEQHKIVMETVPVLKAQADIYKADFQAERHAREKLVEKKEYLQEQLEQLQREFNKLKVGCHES
Method: Measurements were performed on a Tecan infinite F500 equipped with polarizing filters and using excitation and emission wavelengths at 485 nm and 535 nm, respectively. Anisotropy data were calculated using the Magellan software version 6.5. Prior experiments, the mouse CC2-LZ was extensively dialyzed in binding buffer containing 20 mM HEPES pH 7.4, 100 mM NaCl, and 0.05% P20 detergent (v/v). All experiments were performed in a 384 well plate (vol 25 μl) at room temperature. The BODIPY®-labeled peptide concentrations were fixed at 0.1 or 10 μM whereas the CC2-LZ concentration varied from 0 to 100 μM. Reference calibrated at 22 mP, was based on the fluorescence of the peptide alone. Each experimental binding curve was determined from at least 10 independent concentration points. The G-factor was calculated as previously described in Agou et al. [7], with a value of 0.75, which was observed constant within 5% upon all titrations. For analysis, the blank value corresponding to the value of buffer alone, was subtracted from all titration data.
All NEMO peptides were conjugated to an extra N-terminal cysteine with the fluorophore BODIPY® or FITC to determine their binding affinity for the CC2-LZ domain of NEMO (also called NOA or UBAN) by fluorescence polarization. For each peptide titration, various concentration of the target ranging from 0 to 100 μM and a fixed concentration of peptide at 0.1 or 10 μM were used at 25° C. […] For these reasons, all further titration experiments were performed with a fixed peptide concentration of 0.1 μM unless otherwise indicated.

[1] = CD spectroscopy, α-helical content; type: physicochemical; conditions: 50 μM peptide, phosphate buffer pH 7.0, UBI in TFE taken as 100%
[2] = Temperature-induced denaturation followed by CD; type: physicochemical; conditions: 30 μM or 300 μM, ΔCp ≈ 0; for Tm: thermal denaturation by CD; for ΔH: van't Hoff enthalpy change at Tm
Method: Temperature-induced denaturation experiments were performed by measuring the ellipticity at 222 nm from 1° C. to 95° C. in 1° C. steps, at a rate of 1° C./min, with a 2 nm bandwidth. Thermodynamic parameters including the melting temperature (Tm) and the van't Hoff enthalpy change at the melting temperature (ΔHm) were determined by fitting the denaturation curves with the Gibbs-Helmholtz equation as described elsewhere, [10]. The heat capacity change (ΔCp) was assumed to be 0 as judged by ΔHm which yielded similar values within 10% at two independent peptide concentrations (30 and 300 μM). The ellipticity was converted to differential extinction coefficient Δε (M^−1·cm^−1) per residue taking into account the peptide concentration determined by amino acid analysis.
Thermal stability of the peptides was also investigated by performing thermal denaturation profiles followed by CD (FIGS. 1 C and D and Table III). […] Indeed, the helicity of UBI-Aib (49%) is only 1.16-fold increased at 1° C. compared to UBI (42%), while its melting temperature (Tm=−8° C.) is 2.25 times higher than that of UBI (Tm=−18° C.).

70Z3-C3 cells = test: Cellular uptake of BODIPY-labeled peptides by FACS; type: cell-based; conditions: for reduction of the uptake of A-UBI-SAHND306-Q313 by endocytosis inhibitor: 30 min pre-incubation, nystatin 50 μg/ml, chlorpromazine 10 μg/ml, ethylisopropylamiloride 100 μM
Method: 2.2×10^5 cells in 100 μl of 70Z3-C3 were incubated with either 10 μM or with various doses of 10 μM, 5 μM and 1 μM of labeled-peptides at 37° C., 5% CO2. Similarly to fluorescence microscopy experiments, cells alone or incubated with BODIPY®-labeled BSA (ref) or BODIPY®-UBI devoid of the antennapedia cell penetrating sequence were used as negative control, whereas cells with BA-UBI [1] at 10 μM were used as positive control. After 2 h incubation, cells were washed 4 times with PBS at room temperature, and finally diluted 1:3 in PBS before subjected to FACS analysis. Along with the BODIPY® fluorophore the fluorescence intensity was recorded at 525±25 nm using the Gallios Flow cytometer (Beckman Coulter) to analyse each cells sample. Each internalization peptide was assessed by gating a population of 15,000 events and the data were analysed using Kaluza software version 1.2.
For determination of cellular uptake by flow cytometry, the BA-UBI-SAHND306-Q313 stapled peptide was first incubated with 2.2×10^5 70Z3-C3 cells in […] either at 4° C. or 37° C. for 2 h. Bodipy-labeled BSA, bodipy alone and bodipy-UBI were used as negative controls to verify the washing quality and efficient removal of any non-specific binding at the cell surface before FACS analysis. […] After 2 h of incubation, cells were washed four times with PBS at room temperature and diluted at 1:3 in PBS for FACS analysis. Samples were analyzed as previously described in the European patent (No: 15307137.8).

- Binding affinity (FP) at 10 μM (CC2-LZ domain of NEMO): weak binding
- α-helical content at 1° C. [1]: A: 63% -
- α-helical content at 1° C. ([1]; listed as UBI-SAHNA303-A310 (A)): 63%
- α-helical content at 1° C. ([1]; listed as UBI-SAHNA310-A310 (A)): 63%
- ΔS [2]: A: −21 - cal. mol^−1.K^−1
- Tm [2]: A: 5 - B: C°
- ΔH [2]: A: −5950 - (cal. mol)^−1
SMILES: CC[C@H](C)[C@@H]1NC(=O)[C@H](CC(=O)O)NC(=O)[C@H](C)NC(=O)[C@H](CCC(N)=O)NC(=O)[C@](C)(NC(=O)[C@H](CCCCN)NC(=O)[C@H](CC(C)C)NC(=O)[C@H](CSC2CC(=O)N(CCNC(=O)CCC3=[N+]4C(=Cc5c(C)cc(C)n5[B-]4(F)F)C=C3)C2=O)NC(C)=O)CCCCCC/C=C\CCC[C@@](C)(C(=O)N[C@@H](CCCNC(=N)N)C(=O)N[C@@H](Cc2ccccc2)C(=O)N[C@@H](CCC(N)=O)C(=O)N[C@@H](C)C(=O)N[C@@H](CCC(=O)O)C(=O)N[C@@H](CCCNC(=N)N)C(=O)N[C@@H](Cc2c[nH]cn2)C(=O)N[C@@H](C)C(=O)N[C@@H](CCCNC(=N)N)C(=O)N[C@@H](CCC(=O)O)C(=O)N[C@@H](CCCCN)C(N)=O)NC(=O)[C@H](CCCCN)NC(=O)[C@H](Cc2ccc(O)cc2)NC1=O (stereo partly shown) [UBI-SAHN A303-A310 (A)] (Ac-C(BODIPYFLEthylmaleimide)LK[R8]QADIYK[S5]RFQAERHAREK-NH2; staple (Z) 4-11; N-terminus and C-terminus assumed)

- Binding affinity (FP) at 10 μM (CC2-LZ domain of NEMO): weak binding
- α-helical content at 1° C. [1]: B: 80%
- α-helical content at 1° C. ([1]; listed as UBI-SAHNA303-A310 (B)): 80%
- ΔS [2]: B: −21 cal. mol^−1.K^−1
- Tm [2]: 33 ± 0.3 C°
- ΔH [2]: B: −6510 (cal. mol)^−1
SMILES: CC[C@H](C)[C@@H]1NC(=O)[C@H](CC(=O)O)NC(=O)[C@H](C)NC(=O)[C@H](CCC(N)=O)NC(=O)[C@](C)(NC(=O)[C@H](CCCCN)NC(=O)[C@H](CC(C)C)NC(=O)[C@H](CSC2CC(=O)N(CCNC(=O)CCC3=[N+]4C(=Cc5c(C)cc(C)n5[B-]4(F)F)C=C3)C2=O)NC(C)=O)CCCCCC/C=C/CCC[C@@](C)(C(=O)N[C@@H](CCCNC(=N)N)C(=O)N[C@@H](Cc2ccccc2)C(=O)N[C@@H](CCC(N)=O)C(=O)N[C@@H](C)C(=O)N[C@@H](CCC(=O)O)C(=O)N[C@@H](CCCNC(=N)N)C(=O)N[C@@H](Cc2c[nH]cn2)C(=O)N[C@@H](C)C(=O)N[C@@H](CCCNC(=N)N)C(=O)N[C@@H](CCC(=O)O)C(=O)N[C@@H](CCCCN)C(N)=O)NC(=O)[C@H](CCCCN)NC(=O)[C@H](Cc2ccc(O)cc2)NC1=O (stereo partly shown) [UBI-SAHN A303-A310 (B)] (Ac-C(BODIPYFLEthylmaleimide)LK[R8]QADIYK[S5]RFQAERHAREK-NH2; staple (E) 4-11; N-terminus and C-terminus assumed)

- Kd (CC2-LZ domain of NEMO; fixed peptide concentration 0.1 μM, read-out: Binding affinity (FP) at 0.1 μM): 24 ± 5 µM
SMILES: CC[C@H](C)[C@@H]1NC(=O)[C@](C)(NC(=O)[C@H](C)NC(=O)[C@H](CCC(N)=O)NC(=O)[C@H](C)NC(=O)[C@H](CCCCN)NC(=O)[C@H](CC(C)C)NC(=O)[C@H](CSC2CC(=O)N(CCNC(=O)CCC3=[N+]4C(=Cc5c(C)cc(C)n5[B-]4(F)F)C=C3)C2=O)NC(C)=O)CCCCCCC=CCCC[C@@](C)(C(=O)N[C@@H](C)C(=O)N[C@@H](CCC(=O)OC)C(=O)N[C@@H](CCCNC(=N)N)C(=O)N[C@@H](Cc2c[nH]cn2)C(=O)N[C@@H](C)C(=O)N[C@@H](CCCNC(=N)N)C(=O)N[C@@H](CCC(=O)OC)C(=O)N[C@@H](CCCCN)C(N)=O)NC(=O)[C@H](Cc2ccccc2)NC(=O)[C@H](CCCNC(=N)N)NC(=O)[C@H](C)NC(=O)[C@H](CCCCN)NC(=O)[C@H](Cc2ccc(O)cc2)NC1=O (stereo partly shown) [UBI-SAHN D306-Q313 OMe, LKAQAX2IYKARFX5AX7RHARX9K] (Ac-C(BODIPYFLEthylmaleimide)LKAQA[R8]IYKARF[S5]AE(OMe)RHARE(OMe)K-NH2; staple 7-14)
- cell internalization by FACS, in words (70Z3-C3 cells): became cell permeable

SMILES: CC[C@H](C)[C@@H]1NC(=O)[C@](C)(NC(=O)[C@H](C)NC(=O)[C@H](CCC(N)=O)NC(=O)[C@H](C)NC(=O)[C@H](CCCCN)NC(=O)[C@H](CC(C)C)NC(=O)[C@H](CSC2CC(=O)N(CCNC(=O)CCC3=[N+]4C(=Cc5c(C)cc(C)n5[B-]4(F)F)C=C3)C2=O)NC(C)=O)CCCCCCC=CCCC[C@@](C)(C(=O)N[C@@H](C)C(=O)N[C@@H](CCC(N)=O)C(=O)N[C@@H](CCCNC(=N)N)C(=O)N[C@@H](Cc2c[nH]cn2)C(=O)N[C@@H](C)C(=O)N[C@@H](CCCNC(=N)N)C(=O)N[C@@H](CCC(N)=O)C(=O)N[C@@H](CCCCN)C(N)=O)NC(=O)[C@H](Cc2ccccc2)NC(=O)[C@H](CCCNC(=N)N)NC(=O)[C@H](C)NC(=O)[C@H](CCCCN)NC(=O)[C@H](Cc2ccc(O)cc2)NC1=O (stereo partly shown) [UBI-SAHN D306-Q313 Q/Q] (Ac-C(BODIPYFLEthylmaleimide)LKAQA[R8]IYKARF[S5]AQRHARQK-NH2; staple 7-14)
- cell internalization by FACS, in words (70Z3-C3 cells): became cell permeable

SMILES: CN(C)CCCN1c2ccccc2Sc2ccc(Cl)cc21 [chlorpromazine, reference compound]
- inhibition at 10 µg/mL (70Z3-C3 cells; read-out: reduction of the uptake of A-UBI-SAHND306-Q313 by endocytosis inhibitor): 59%

SMILES: CCN(c1nc(N)c(C(=O)N=C(N)N)nc1Cl)C(C)C [ethylisopropylamiloride, 5-(N-ethyl-N-isopropyl) amiloride, reference compound]
- reduction of the uptake of A-UBI-SAHND306-Q313 by endocytosis inhibitor (70Z3-C3 cells): 26%

SMILES: C[C@@H]1[C@H](O)[C@@H](C)/C=C/C=C/CC/C=C/C=C/C=C/C=C/C(O[C@H]2O[C@H](C)[C@@H](O)[C@H](N)[C@@H]2O)CC2O[C@](O)(CC(O)C(O)CCC(O)CC(O)CC(O)CC(=O)O[C@H]1C)CC(O)C2C(=O)O (stereo partly shown) [nystatin, reference compound]
- reduction of the uptake of A-UBI-SAHND306-Q313 by endocytosis inhibitor (70Z3-C3 cells): 50%
